Laboratory results taken from ChEMBL document CHEMBL1201862, “PubChem BioAssay data set” (2004).
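Protocol summary: plate cells (96-well), add compound at 5 concentrations, incubate 48 h, interpolate endpoints linearly. Abbreviation: GI50, concentration required for 50% inhibition of growth.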 Calls of active or inactive are those of the source. Rule as the data show it: active = GI50 up to about 1.1 µM and inactive = higher.

Legend:
Test in all cases: NCI-60 cell line screen, 48 h
[1] = system: 786-0
[2] = system: A498
[3] = system: A549
[4] = system: ACHN
[5] = system: BT-549
[6] = system: CAKI-1
[7] = system: CCRF-CEM
[8] = system: COLO 205
[9] = system: DLD-1
[10] = system: DMS-114
[11] = system: DMS-273
[12] = system: DU-145
[13] = system: EKVX
[14] = system: HCC 2998
[15] = system: HCT-116
[16] = system: HCT-15
[17] = system: HL-60
[18] = system: HOP-18
[19] = system: HOP-62
[20] = system: HOP-92
[21] = system: HT-29
[22] = system: Hs-578T
[23] = system: IGROV-1
[24] = system: K562
[25] = system: KM-20L2
[26] = system: KM12
[27] = system: LOX IMVI
[28] = system: LXFL 529
[29] = system: M14
[30] = system: M19-MEL
[31] = system: MCF7
[32] = system: MDA-MB-231
[33] = system: MDA-MB-435
[34] = system: MDA-N
[35] = system: MOLT-4
[36] = system: Malme-3M
[37] = system: NCI-H226
[38] = system: NCI-H23
[39] = system: NCI-H460
[40] = system: NCI-H522
[41] = system: OVCAR-3
[42] = system: OVCAR-4
[43] = system: OVCAR-5
[44] = system: OVCAR-8
[45] = system: PC-3
[46] = system: RPMI-8226
[47] = system: RXF 393
[48] = system: SF-268
[49] = system: SF-295
[50] = system: SF-539
[51] = system: SK-MEL-28
[52] = system: SK-MEL-2
[53] = system: SK-MEL-5
[54] = system: SK-OV-3
[55] = system: SN12C
[56] = system: SNB-19
[57] = system: SNB-75
[58] = system: SNB-78
[59] = system: SR
[60] = system: SW-620
[61] = system: T47D
[62] = system: TK-10
[63] = system: U-251
[64] = system: UACC-257
[65] = system: UACC-62
[66] = system: UO-31
[67] = system: XF498

With `COc1cc(-c2[nH]ccc2Cl)oc1C1=C2N=C3C=C2C(C(C)C)C1CCCCCCCC3` (configuration not stated) the GI50 [1] was 449 nM (active), the GI50 [2] was 2160 nM (inactive) and the GI50 [3] was 912 nM (active). The GI50 [4] was 971 nM (active), the GI50 [5] was 1100 nM (active) and the GI50 [6] was 2000 nM (inactive). The GI50 [7] was 275 nM (active), the GI50 [8] was 566 nM (active) and the GI50 [9] was 975 nM (active). The GI50 [10] was 485 nM (active), the GI50 [11] was 589 nM (active) and the GI50 [12] was 614 nM (active). For the same compound, the GI50 [13] was 944 nM (active), the GI50 [14] was 341 nM (active) and the GI50 [15] was 307 nM (active). For the same compound, the GI50 [16] was 678 nM, the GI50 [17] was 299 nM (active) and the GI50 [18] was 332 nM (active). For the same compound, the GI50 [19] was 774 nM (active), the GI50 [20] was 1690 nM (inactive) and the GI50 [21] was 252 nM (active). For the same compound, the GI50 [22] was 253 nM (active), the GI50 [23] was 993 nM (active) and the GI50 [24] was 403 nM (active). For the same compound, the GI50 [25] was 308 nM (active), the GI50 [26] was 476 nM (active) and the GI50 [27] was 167 nM (active). For the same compound, the GI50 [28] was 515 nM (active), the GI50 [29] was 438 nM (active) and the GI50 [30] was 603 nM (active). For the same compound, the GI50 [31] was 603 nM (active), the GI50 [32] was 279 nM (active) and the GI50 [33] was 401 nM (active). The GI50 [34] was 466 nM (active), the GI50 [35] was 433 nM (active) and the GI50 [36] was 1090 nM (active). For the same compound, the GI50 [37] was 1060 nM (active), the GI50 [38] was 738 nM (active) and the GI50 [39] was 319 nM (active). For the same compound, the GI50 [40] was 407 nM (active), the GI50 [41] was 610 nM (active) and the GI50 [42] was 863 nM (active). The GI50 [43] was 735 nM (active), the GI50 [44] was 805 nM (active) and the GI50 [45] was 332 nM (active). For the same compound, the GI50 [46] was 339 nM (active), the GI50 [47] was 904 nM (active) and the GI50 [48] was 1080 nM (active). For the same compound, the GI50 [49] was 1150 nM (inactive), the GI50 [50] was 869 nM (active) and the GI50 [51] was 1350 nM (inactive). The GI50 [52] was 483 nM (active), the GI50 [53] was 321 nM (active) and the GI50 [54] was 1600 nM (inactive). The GI50 [55] was 940 nM (active), the GI50 [56] was 1690 nM (inactive) and the GI50 [57] was 1120 nM (inactive). For the same compound, the GI50 [58] was 2830 nM (inactive), the GI50 [59] was 292 nM (active) and the GI50 [60] was 386 nM (active). The GI50 [61] was 272 nM (active), the GI50 [62] was 2050 nM (inactive) and the GI50 [63] was 711 nM (active). The GI50 [64] was 1290 nM (inactive), the GI50 [65] was 794 nM (active) and the GI50 [66] was 1030 nM (active). The GI50 [67] was 1380 nM (inactive).
